Test results reported in ChEMBL document CHEMBL3885861, “Open TG-GATES”.

Species: Rattus norvegicus
Test: Open TG-GATES - Regimen: Single
Type: toxicity, organism-based, Sprague-Dawley
Design: regimen Single, gender Male, age 6 weeks
Settings: in vivo, iv, route intravenous injection; for LIVER: tissue Liver; for A/G / ALP / ALT / AST / BUN / CRE / Ca / Cl / DBIL / GLC / IP / K / LDH / Na / PL / RALB / TBIL / TC / TG / TP / gamma-GTP: tissue Plasma; for APTT / Bas / Eos / Fbg / Hb / Ht / Lym / MCH / MCHC / MCV / Mono / Neu / PT / Plat / RBC / Ret / WBC: tissue Blood; for KIDNEY_L / KIDNEY_R / KIDNEY_TOTAL: tissue Kidney
[1] = 2 mg/kg, 3 h, dose level Middle
[2] = 2 mg/kg, 6 h, dose level Middle

C[C@@H]1[C@H](O)[C@@H](C)/C=C/C=C/C=C/C=C/C=C/C=C/C=C/[C@H](O[C@@H]2O[C@H](C)[C@@H](O)[C@H](N)[C@@H]2O)C[C@@H]2O[C@](O)(C[C@@H](O)C[C@@H](O)[C@H](O)CC[C@@H](O)C[C@@H](O)CC(=O)O[C@H]1C)C[C@H](O)[C@H]2C(=O)O [AMPHOTERICIN B]
LIVER (1 mg/kg, 9 h, dose level Low): 8.4 g | A/G (1 mg/kg, 9 h, dose level Low): 0.8 | ALP (1 mg/kg, 9 h, dose level Low): 1344.2 IU/L | ALT (1 mg/kg, 9 h, dose level Low): 33 IU/L | AST (1 mg/kg, 9 h, dose level Low): 85 IU/L | BUN (1 mg/kg, 9 h, dose level Low): 16.6 mg/dL | CRE (1 mg/kg, 9 h, dose level Low): 0.1 mg/dL | Ca (1 mg/kg, 9 h, dose level Low): 10.6 mg/dL | Cl (1 mg/kg, 9 h, dose level Low): 106.6 meq/L | DBIL (1 mg/kg, 9 h, dose level Low): 0.012 mg/dL | GLC (1 mg/kg, 9 h, dose level Low): 161.4 mg/dL | IP (1 mg/kg, 9 h, dose level Low): 10.2 mg/dL | K (1 mg/kg, 9 h, dose level Low): 3.8 meq/L | LDH (1 mg/kg, 9 h, dose level Low): 53.6 IU/L | Na (1 mg/kg, 9 h, dose level Low): 142.8 meq/L | PL (1 mg/kg, 9 h, dose level Low): 122.8 mg/dL | RALB (1 mg/kg, 9 h, dose level Low): 2.5 g/dL | TBIL (1 mg/kg, 9 h, dose level Low): 0.07 mg/dL | TC (1 mg/kg, 9 h, dose level Low): 75.8 mg/dL | TG (1 mg/kg, 9 h, dose level Low): 31.4 mg/dL | TP (1 mg/kg, 9 h, dose level Low): 5.6 g/dL | gamma-GTP (1 mg/kg, 9 h, dose level Low): 1.6 IU/L | TERMINAL_BW (1 mg/kg, 24 h, dose level Low): 224.5 g | APTT (1 mg/kg, 24 h, dose level Low): 14.8 s | Bas (1 mg/kg, 24 h, dose level Low): 0% | Eos (1 mg/kg, 24 h, dose level Low): 1% | Fbg (1 mg/kg, 24 h, dose level Low): 286.6 mg/dL | Hb (1 mg/kg, 24 h, dose level Low): 13.3 g/dL | Ht (1 mg/kg, 24 h, dose level Low): 39.7% | Lym (1 mg/kg, 24 h, dose level Low): 79.8% | MCH (1 mg/kg, 24 h, dose level Low): 21.2 pg | MCHC (1 mg/kg, 24 h, dose level Low): 33.6% | MCV (1 mg/kg, 24 h, dose level Low): 63.1 fL | Mono (1 mg/kg, 24 h, dose level Low): 2.2% | Neu (1 mg/kg, 24 h, dose level Low): 16.6% | PT (1 mg/kg, 24 h, dose level Low): 12 s | Plat (1 mg/kg, 24 h, dose level Low): 135.9 x10_4/uL | RBC (1 mg/kg, 24 h, dose level Low): 628.6 x10_4/ul | Ret (1 mg/kg, 24 h, dose level Low): 7.1% | WBC (1 mg/kg, 24 h, dose level Low): 100.8 x10_2/uL | KIDNEY_L (1 mg/kg, 24 h, dose level Low): 1 g | KIDNEY_R (1 mg/kg, 24 h, dose level Low): 1 g | KIDNEY_TOTAL (1 mg/kg, 24 h, dose level Low): 1.9 g | LIVER (1 mg/kg, 24 h, dose level Low): 10.5 g | A/G (1 mg/kg, 24 h, dose level Low): 0.8 | ALP (1 mg/kg, 24 h, dose level Low): 1710.6 IU/L | ALT (1 mg/kg, 24 h, dose level Low): 39.8 IU/L | AST (1 mg/kg, 24 h, dose level Low): 67.8 IU/L | BUN (1 mg/kg, 24 h, dose level Low): 17.2 mg/dL | CRE (1 mg/kg, 24 h, dose level Low): 0.2 mg/dL | Ca (1 mg/kg, 24 h, dose level Low): 11 mg/dL | Cl (1 mg/kg, 24 h, dose level Low): 105.6 meq/L | DBIL (1 mg/kg, 24 h, dose level Low): 0.02 mg/dL | GLC (1 mg/kg, 24 h, dose level Low): 161.8 mg/dL | IP (1 mg/kg, 24 h, dose level Low): 8.2 mg/dL | K (1 mg/kg, 24 h, dose level Low): 3.9 meq/L | LDH (1 mg/kg, 24 h, dose level Low): 50.4 IU/L | Na (1 mg/kg, 24 h, dose level Low): 144 meq/L | PL (1 mg/kg, 24 h, dose level Low): 143.8 mg/dL | RALB (1 mg/kg, 24 h, dose level Low): 2.7 g/dL | TBIL (1 mg/kg, 24 h, dose level Low): 0.056 mg/dL | TC (1 mg/kg, 24 h, dose level Low): 79.4 mg/dL | TG (1 mg/kg, 24 h, dose level Low): 92.2 mg/dL | TP (1 mg/kg, 24 h, dose level Low): 5.8 g/dL | gamma-GTP (1 mg/kg, 24 h, dose level Low): 1.8 IU/L | TERMINAL_BW [1]: 220.8 g | APTT [1]: 17.1 s | Bas [1]: 0% | Eos [1]: 1% | Fbg [1]: 283 mg/dL | Hb [1]: 13.7 g/dL | Ht [1]: 38.4% | Lym [1]: 69% | MCH [1]: 20.9 pg | MCHC [1]: 35.8% | MCV [1]: 58.4 fL | Mono [1]: 4% | Neu [1]: 25% | PT [1]: 12.6 s | Plat [1]: 117.6 x10_4/uL | RBC [1]: 657 x10_4/ul | Ret [1]: 6.8% | WBC [1]: 144 x10_2/uL | KIDNEY_L [1]: 1 g | KIDNEY_R [1]: 0.9 g | KIDNEY_TOTAL [1]: 1.9 g | LIVER [1]: 10.3 g | A/G [1]: 0.8 | ALP [1]: 1456 IU/L | ALT [1]: 41 IU/L | AST [1]: 72 IU/L | BUN [1]: 31 mg/dL | CRE [1]: 0.2 mg/dL | Ca [1]: 11 mg/dL | Cl [1]: 106 meq/L | DBIL [1]: 0.01 mg/dL | GLC [1]: 186 mg/dL | IP [1]: 10.5 mg/dL | K [1]: 4.4 meq/L | LDH [1]: 71 IU/L | Na [1]: 141 meq/L | PL [1]: 134 mg/dL | RALB [1]: 2.5 g/dL | TBIL [1]: 0.07 mg/dL | TC [1]: 78 mg/dL | TG [1]: 41 mg/dL | TP [1]: 5.5 g/dL | gamma-GTP [1]: 2 IU/L | TERMINAL_BW [2]: 211.7 g | APTT [2]: 15.8 s | Bas [2]: 0.2% | Eos [2]: 0% | Fbg [2]: 236 mg/dL | Hb [2]: 14.3 g/dL | Ht [2]: 41.1% | Lym [2]: 54.8% | MCH [2]: 21.2 pg | MCHC [2]: 35% | MCV [2]: 60.7 fL | Mono [2]: 3.2% | Neu [2]: 40.8% | PT [2]: 12.8 s | Plat [2]: 138.8 x10_4/uL | RBC [2]: 676.8 x10_4/ul | Ret [2]: 8.1% | WBC [2]: 102.6 x10_2/uL | KIDNEY_L [2]: 1 g | KIDNEY_R [2]: 1 g | KIDNEY_TOTAL [2]: 2.1 g | LIVER [2]: 9.1 g | A/G [2]: 0.9 | ALP [2]: 1566.8 IU/L | ALT [2]: 197 IU/L | AST [2]: 407 IU/L | BUN [2]: 43.8 mg/dL | CRE [2]: 0.4 mg/dL | Ca [2]: 11 mg/dL | Cl [2]: 107 meq/L | DBIL [2]: 0.0175 mg/dL | GLC [2]: 196.8 mg/dL
